# Assays:
# [1] = MC540 probe fluorescence intensity in MM liposomes; conditions: 37 °C, positive = decrease
# Description: (§1) Two types of liposomes were used to study interactions with biological membranes: liposomes mimicking the composition of cancer cell membranes (mimic membrane liposome—MM) and liposomes formed from lipids extracted from human blood erythrocyte membranes (red blood cell membrane liposome—RBCM). […] Both lipids, dissolved in chloroform (MM liposome) and n-decane (RBCM liposome), were evaporated under a nitrogen atmosphere, and then dried in a desiccator for 90 min under a vacuum. The obtained dry lipid film was hydrated in phosphate buffer, pH 7.4, obtaining a concentration of 0.1 mg/ml, and then vortexed for one minute until a homogeneous, milky suspension was observed. The mixture was sonicated (Sonic, Milano, Italia) for 15 min keeping the sample in a bath of ice water, thus providing a cooling temperature of 0 °C. The suspension was then processed (extrusion) through polycarbonate filters with pore diameters of 100 and 200 nm using a Lipex extruder (Evonik). Liposomes, which had been prepared according to this procedure, was used in fluorimetric studies.
# (§2) To investigate these properties three fluorescent probes were used: MC540, TMA-DPH, and DPH. MC540 localizes to the outer, hydrophilic part of the membrane, within the region of the glycerol skeleton[44]. Changes in the fluorescence intensity of this probe were formulated as the relative change in intensity to the control as a function of anthocyanins concentration. The TMA-DPH and DPH probes are supposed to locate nearer to the interface and in the hydrophobic region, respectively[45]. The measurement of changes in the anisotropy of the TMA-DPH and DPH probes allowed us to reflect the mobility of the fluorescent probes in the membrane, and therefore to determine the fluidity of the bilayer[46]. Fluorescence anisotropy was calculated using the formula[47]:1 A=I‖-GI⊥/I‖+2GI⊥ where I‖ and I⊥ are the intensity of fluorescence in parallel and perpendicular directions, to the plane of polarization of the excitation wave, respectively. G is an apparatus constant that depends on the emission wavelength.
# (§3) Liposomes (the concentration of lipids in the sample was 0.1 mg/ml) were incubated for 30 min with the appropriate probe (dissolved in DMF, 1 µM concentration), and then the tested anthocyanins were added (final concentration of 1 to 30 µM). The control sample consisted of liposomes and a fluorescent probe. Fluorescence was measured on a fluorimeter (Cary Eclipse, Varian, San Diego, USA) at 37 °C. The excitation wavelengths λex and emission wavelengths λem respectively: MC540—λexc = 540 nm, λem = 590 nm; DPH—λexc = 360 nm, λem = 425 nm. nm; TMA-DPH—λexc = 340 nm, λem = 430 nm.
# [2] = MC540 probe fluorescence intensity in RBCM liposomes; set-up: species or system human; conditions: 37 °C, positive = decrease
# Description: as §1, §2, §3
# [3] = TMA-DPH probe fluorescence anisotropy in MM liposomes; conditions: negative = increase in anisotropy
# Description: as §1, §2, §3
# [4] = TMA-DPH probe fluorescence anisotropy in RBCM liposomes; set-up: species or system human; conditions: negative = increase in anisotropy
# Description: Two types of liposomes were used to study interactions with biological membranes: liposomes mimicking the composition of cancer cell membranes (mimic membrane liposome—MM) and liposomes formed from lipids extracted from human blood erythrocyte membranes (red blood cell membrane liposome—RBCM). […] The RBCM liposome was according to the methodology described previously[42] with minor modifications[43]. Both lipids, dissolved in chloroform (MM liposome) and n-decane (RBCM liposome), were evaporated under a nitrogen atmosphere, and then dried in a desiccator for 90 min under a vacuum. The obtained dry lipid film was hydrated in phosphate buffer, pH 7.4, obtaining a concentration of 0.1 mg/ml, and then vortexed for one minute until a homogeneous, milky suspension was observed. The mixture was sonicated (Sonic, Milano, Italia) for 15 min keeping the sample in a bath of ice water, thus providing a cooling temperature of 0 °C. The suspension was then processed (extrusion) through polycarbonate filters with pore diameters of 100 and 200 nm using a Lipex extruder (Evonik). Liposomes, which had been prepared according to this procedure, was used in fluorimetric studies.
# To investigate these properties three fluorescent probes were used: MC540, TMA-DPH, and DPH. MC540 localizes to the outer, hydrophilic part of the membrane, within the region of the glycerol skeleton[44]. […] The TMA-DPH and DPH probes are supposed to locate nearer to the interface and in the hydrophobic region, respectively[45]. The measurement of changes in the anisotropy of the TMA-DPH and DPH probes allowed us to reflect the mobility of the fluorescent probes in the membrane, and therefore to determine the fluidity of the bilayer[46]. Fluorescence anisotropy was calculated using the formula[47]:1 A=I‖-GI⊥/I‖+2GI⊥ where I‖ and I⊥ are the intensity of fluorescence in parallel and perpendicular directions, to the plane of polarization of the excitation wave, respectively. G is an apparatus constant that depends on the emission wavelength.
# as §3
# [5] = DPH probe fluorescence anisotropy in MM liposomes; conditions: MM, negative = increase in anisotropy
# Description: as §1, §2, §3
# [6] = DPH probe fluorescence anisotropy in RBCM liposomes; set-up: species or system human; conditions: RBCM, negative = increase in anisotropy
# Description: as §1, §2, §3
# [7] = DPH fluorescence quenching, dissociation constant with MM liposome membrane; assay type: binding; conditions: 37 °C
# [8] = DPH fluorescence quenching, dissociation constant with RBCM liposome membrane; assay type: binding, human; conditions: 37 °C
# Description: as §1
# The phenomenon of quenching the fluorescence of the DPH probe by biologically active substances enabled us to evaluate the partition coefficient (Kd, dissociation constant) of anthocyanins with both MM and RBCM liposome membranes. For this purpose, changes in the fluorescence intensity of this probe were checked and the coefficient was calculated using the equation[48]:2 1/F0/F-1=Kd/[liposomes]×1/[anthocyanins]+1/liposomes where F0—fluorescence intensity in the absence of anthocyanins (control sample), F—fluorescence intensity in the presence of anthocyanins, [liposomes]—concentration of liposomes in mg/ml, [anthocyanins]—concentration of anthocyanins tested mg/ml.
# as §3
# [9] = target: human serum albumin (HSA) (Homo sapiens, UniProt P02768); experiment: Quenching of natural fluorescence of human serum albumin; assay type: binding; conditions: HSA […] 10^–5 M, 37 °C
# Sequence of human serum albumin (HSA) (P02768 25-609): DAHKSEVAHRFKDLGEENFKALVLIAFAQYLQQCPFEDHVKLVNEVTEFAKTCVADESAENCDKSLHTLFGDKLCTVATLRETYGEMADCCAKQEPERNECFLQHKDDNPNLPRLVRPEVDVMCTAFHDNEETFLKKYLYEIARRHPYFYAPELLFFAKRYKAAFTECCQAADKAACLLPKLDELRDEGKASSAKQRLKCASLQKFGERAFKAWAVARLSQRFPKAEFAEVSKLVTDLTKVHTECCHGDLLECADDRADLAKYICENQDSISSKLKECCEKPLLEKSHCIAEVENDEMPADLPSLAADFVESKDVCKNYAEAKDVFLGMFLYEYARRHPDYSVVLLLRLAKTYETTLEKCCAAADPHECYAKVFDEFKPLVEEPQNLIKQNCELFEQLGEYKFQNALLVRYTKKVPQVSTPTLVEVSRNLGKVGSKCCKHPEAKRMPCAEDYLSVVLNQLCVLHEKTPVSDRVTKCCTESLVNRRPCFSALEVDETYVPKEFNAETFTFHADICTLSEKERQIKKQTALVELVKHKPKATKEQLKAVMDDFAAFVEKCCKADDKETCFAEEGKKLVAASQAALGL
# Description: The phenomenon of quenching the natural fluorescence of human serum albumin (HSA) was used to investigate the potential interaction of anthocyanins with this protein. […] Anthocyanins with concentrations ranging from 1 to 30 µM were added to HSA dissolved in phosphate buffer (1.5 × 10^–5 M) and then incubated at 37 °C for 20 min. Emission spectra were performed on a fluorimeter Cary Eclipse (Varian, San Diego, USA) at 37 °C. HSA fluorescence was excited with a wavelength of λ = 280 nm, the emission was measured in the range from 286 to 460 nm, and the fluorescence intensity was read at 345 nm where the emission maximum of HSA was located.
# The Stern–Volmer equation was used to thoroughly describe the quenching mechanism of natural fluorescence and to determine the bindings parameters of HSA: anthocyanin complexes:4 F0/F=1+Kqτ0Q=1+KSV[Q] where F0—fluorescence intensity in the absence of anthocyanins (control sample), F—fluorescence intensity in the presence of anthocyanins, KSV—Stern–Volmer quenching constant (KSV = Kq·τ0), [Q]—concentration of quencher (tested compound), Kq—bimolecular quenching constant, τ0—a lifetime of the fluorophore in the absence of quencher the fluorescence lifetime of a biopolymer is calculated as 5 × 10^–9 s[51].
# The apparent binding constants (Kb) and the number of binding sites (n) can be calculated using the following equation:5 log(F0-F/F]=logKb+nlog[Q]
# F0 and F are the fluorescence intensities before and after the addition of the quencher. From the linear plot of log (F0 − F)/F versus log [Q], the value of Kb was obtained from the intercept.
# pHbApr-1-Neo plasmid DNA = experiment: TCSPC-FCS of PicoGreen-labelled plasmid DNA with anthocyanins; assay type: binding
# Description: To evaluate the biological interaction with DNA molecules the anthocyanins were initially dissolved in ETOH (1 mM). […] Mixing of such solutions with the aqueous DNA solutions used in the studies never exceeded 1% concentration ETOH (v/v) in the final solution. The DNA plasmid was labelled by PicoGreen (CPicoGreen/CDNAbp = 0.02)[52]. The pHbApr-1-Neo plasmid (10 kbp and contour length 3.4 µm) was a generous gift from the laboratory of Prof. Maciej Ugorski (Department of Biochemistry and Molecular Biology, Wrocław University of Environmental and Life Sciences Wroclaw, Poland). PicoGreen-labelled DNA samples mixed with the appropriate amount of anthocyanins were left overnight and then measured. The increasing concentration of anthocyanins in the tested samples was expressed as the ratio of the molar concentration of anthocyanins per molar concentration of DNA base pairs in a given sample (comp/bp). The 100 µl samples were measured in Ibidi 8-well chambers. Each point on the graph is a single sample (average of 10 measurements). All measurements were performed at room temperature (25 °C). Time-correlated single-photon counting fluorescence correlation spectroscopy (TCSPC-FCS) was used to study the interaction of plasmid DNA at the single molecule level with all tested anthocyanins. […] Low power of 1uW (at the back aperture of the objective) was chosen to minimize photobleaching and saturation. In the detection plane, a pinhole (50um in diameter) was used and the signal was collected by a single photon avalanche diode (SPAD, Microphoton Devices, Bolzano, Italy). Photon arrival times were stored using fast electronics (Picoharp 300, PicoQuant) in time-tagged time-resolved recording mode. Two independent times were assigned to each detected photon: (1) a time after the beginning of the measurement and (2) a time after the previous laser pulse. The FCS data analysis was done using home-built routines (DevC++, Bloodshed Software and OriginPro70, OriginLab Corporation). The TCSPC data analysis was performed using SymPhoTime software (PicoQuant). Further details of the data evaluation are given elsewhere.
# [10] = 30 µM, listed as petunidin glucoside
SMILES,Changes in MC540 fluorescence intensity relative to the control ([1]; 1 µM) [%],Changes in MC540 fluorescence intensity relative to the control ([1]; 5 µM) [%],Changes in MC540 fluorescence intensity relative to the control ([1]; 10 µM) [%],Changes in MC540 fluorescence intensity relative to the control ([1]; 20 µM) [%],Changes in MC540 fluorescence intensity relative to the control ([1]; 30 µM) [%],Changes in MC540 fluorescence intensity relative to the control ([2]; 1 µM) [%],Changes in MC540 fluorescence intensity relative to the control ([2]; 10 µM) [%],Changes in MC540 fluorescence intensity relative to the control ([2]; 20 µM) [%],Changes in MC540 fluorescence intensity relative to the control ([2]; 30 µM) [%],Changes in TMA-DPH anisotropy relative to the control ([3]; 1 µM) [%],Changes in TMA-DPH anisotropy relative to the control ([3]; 5 µM) [%],Changes in TMA-DPH anisotropy relative to the control ([3]; 10 µM) [%],Changes in TMA-DPH anisotropy relative to the control ([3]; 20 µM) [%],Changes in TMA-DPH anisotropy relative to the control ([3]; 30 µM) [%],Changes in TMA-DPH anisotropy relative to the control ([4]; 1 µM) [%],Changes in TMA-DPH anisotropy relative to the control ([4]; 5 µM) [%],Changes in TMA-DPH anisotropy relative to the control ([4]; 10 µM) [%],Changes in TMA-DPH anisotropy relative to the control ([4]; 20 µM) [%],Changes in TMA-DPH anisotropy relative to the control ([4]; 30 µM) [%],Changes in DPH anisotropy relative to the control ([5]; 1 µM) [%],also measured
"COc1cc(-c2[o+]c3cc(O)cc(O)c3cc2OC2OC(CO)C(O)C(O)C2O)ccc1O (stereo not shown) [Pn 3-glc, Peonidin 3-O-glucoside]",6.40±0.34,10.52±0.67,14.98±0.94,24.13±1.45,35.68±1.88,16.40±0.66,29.53±2.47,38.00±0.57,50.34±2.93,-3.26±0.11,-0.96±0.03,0.69±0.02,0.19±0.003,1.63±0.05,-2.75±0.12,-0.59±0.03,-0.56±0.02,-0.61±0.03,0.65±0.04,-7.68±0.11,"Changes in MC540 fluorescence intensity relative to the control ([2]; 5 µM): 20.98±1.80%; Changes in DPH anisotropy relative to the control ([5]; 5 µM): -6.50±0.15%; Changes in DPH anisotropy relative to the control ([5]; 10 µM): -6.27±0.08%; Changes in DPH anisotropy relative to the control ([5]; 20 µM): -3.12±0.03%; Changes in DPH anisotropy relative to the control ([5]; 30 µM): -0.39±0.01%; Changes in DPH anisotropy relative to the control ([6]; 1 µM): -5.23±0.04%; Changes in DPH anisotropy relative to the control ([6]; 5 µM): -2.72±0.08%; Changes in DPH anisotropy relative to the control ([6]; 10 µM): -2.02±0.05%; Changes in DPH anisotropy relative to the control ([6]; 20 µM): -0.79±0.03%; Changes in DPH anisotropy relative to the control ([6]; 30 µM): -0.03±0.002%; Kd [7]: 114 ± 17.2 µM; Kd [8]: 28.2 ± 5.11 µM; Stern Volmer constant KSV [9]: 11.93 ± 1.61 × 10^3 M^−1; number of binding sites n [9]: 0.91 ± 0.09; lifetime (LT) (pHbApr-1-Neo plasmid DNA; 0 < comp/bp < 1, decrease from 4.25 ns): about 3.25 ns; lifetime (LT) (pHbApr-1-Neo plasmid DNA; comp/bp from 1 to 10, minor further decrease): about 2.75 ns; decrease in the diffusion time (tD) (pHbApr-1-Neo plasmid DNA; tested range of comp/bp from 0 to 10): 2.5 fold"
"COc1cc(-c2[o+]c3cc(O)cc(O)c3cc2OC2OC(CO)C(O)C(O)C2O)cc(O)c1O (stereo not shown) [Pt 3-glc, Petunidin 3-O-glucoside]",6.95±0.35,10.52±0.57,17.35±0.69,31.49±1.78,42.63±0.74,13.68±0.65,28.28±3.62,41.75±7.08,58.91±14.03,-3.47±0.16,-2.18±0.02,-2.04±0.07,0.91±0.03,-2.20±0.06,-2.24±0.09,-0.99±0.03,1.63±0.07,-0.47±0.02,3.60±0.11,-5.67±0.28,"Changes in MC540 fluorescence intensity relative to the control [1, 10]: 42.6 ± 0.7%; Changes in MC540 fluorescence intensity relative to the control [2, 10]: 58.9 ± 14.0%; Changes in DPH anisotropy relative to the control ([5]; 5 µM): -9.84±0.13%; Changes in DPH anisotropy relative to the control ([5]; 10 µM): -9.71±0.15%; Changes in DPH anisotropy relative to the control ([5]; 20 µM): -7.55±0.12%; Changes in DPH anisotropy relative to the control ([5]; 30 µM): -6.11±0.03%; Changes in DPH anisotropy relative to the control ([6]; 1 µM): -7.54±0.13%; Changes in DPH anisotropy relative to the control ([6]; 5 µM): -7.10±0.35%; Changes in DPH anisotropy relative to the control ([6]; 10 µM): -7.11±0.42%; Changes in DPH anisotropy relative to the control ([6]; 20 µM): -7.30±0.53%; Changes in DPH anisotropy relative to the control ([6]; 30 µM): -7.24±0.48%; Kd [7]: 29.3 ± 5.43 µM; Kd [8]: 46.9 ± 6.8 µM; Stern Volmer constant KSV [9]: 5.50 ± 0.94 × 10^3 M^−1; number of binding sites n [9]: 0.92 ± 0.04; decrease in the diffusion time (tD) (pHbApr-1-Neo plasmid DNA; comp/bp = 1, from about 70 ms): ~20 fold; lifetime (LT) (pHbApr-1-Neo plasmid DNA; comp/bp = 1, plasmid alone 4.25 ns): about 3.0 ns; Particle Number (PN) (pHbApr-1-Neo plasmid DNA; comp/bp = 1, plasmid alone 5): about 0.7; diffusion time (tD) (pHbApr-1-Neo plasmid DNA; comp/bp = 1, plasmid alone about 70 ms): 3.5 ms"

# — article PMC10412636, “An analysis of interactions between three structurally diverse anthocyanidins, as well as their glucosides, and model biological membranes, albumin, and plasmid DNA” (Scientific Reports, 2023)
